# Results taken from US5565566A (Discovery Therapeutics, Inc., priority 1995, dated 1996).
# pKi: −log10 of the molar value. Counter-ions that a name gives are not always drawn. Like-named read-outs stand apart in the source and are kept apart here.
# Tests used:
# [1] = target: T1, rat cortical A1 receptors (Rattus norvegicus, UniProt P25099); assay: displacement of [3H]-CHA from rat cortical A1 receptors; assay type: binding
# T1 construct: rat cortical membranes were the receptor source; from tissue; host or cells: rat cerebral cortex (male Sprague Dawley) membranes
# T1 sequence (P25099 1-326): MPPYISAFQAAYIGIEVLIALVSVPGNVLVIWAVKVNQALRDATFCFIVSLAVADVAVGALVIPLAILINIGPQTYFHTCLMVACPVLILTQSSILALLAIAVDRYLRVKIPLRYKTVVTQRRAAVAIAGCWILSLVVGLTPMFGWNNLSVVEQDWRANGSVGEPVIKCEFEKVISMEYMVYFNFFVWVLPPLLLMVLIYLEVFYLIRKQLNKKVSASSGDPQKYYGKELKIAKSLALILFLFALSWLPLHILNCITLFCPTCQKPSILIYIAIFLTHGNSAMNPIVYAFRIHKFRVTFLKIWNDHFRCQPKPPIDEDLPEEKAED
# Protocol: Varying concentrations of test compounds were incubated with the appropriate radioligand and membrane source for 1 hr at room temperature.
# Assays were terminated by filtration over Whatman GF/B filters that had been pre-soaked with 0.1% polyethyleneimine using a 24 port Brandell cell havester. The filters were washed three times with 3 ml of ice cold buffer and transfered to plastic scintillation vials to which 4 ml of Beckman Ready protein scintillation cocktail was added. The tubes were shaken and counted in a Beckman 3801 scintillation counter that converted cpm to dpm.
# Data were analyzed by utilizing the Ligand, commercial computer program (Munson and Rodbard, 1980).
# Male Sprague Dawley rats were killed by decapitation and the brains removed. The cerebral cortices were homogenized in 50 mm Tris; 2mm MgCl2 (pH 7.4), and centrifuged at 40,000×g for 10 minutes. […] The homogenate was centrifuged, washed once, resuspended to a protein concentration of 5-10 mg/ml and frozen at -70° C. until use.
# A1 receptors [2] = target: T2, A1 receptors (Rattus norvegicus, UniProt P25099); assay: prevention of R-PIA-induced inhibition of adenylate cyclase in rat fat cell membranes (C); assay type: biochemical; set-up: from tissue
# T2 sequence (P25099 1-326): T1 sequence (P25099 1-326)
# Protocol: (§1) For activity at A1 receptors, compounds were tested as inhibitors of the binding of N^6 -[…]-[3H]-Phenylisopropyladenosine in rat brain membranes and for their ability to prevent R-PIA-induced inhibition of adenylate cyclase in rat fat cell membranes.
# (C) Rat Fat Cell Membranes
# A2 receptors [3] = target: T3, A2 receptors (Rattus norvegicus, UniProt P30543); assay: antagonism of NECA-stimulated adenylate cyclase in rat PC12 membranes (B); assay type: biochemical
# T3 construct: Rat PC12 Membranes; endogenous in cells; host or cells: PC12
# T3 sequence (P30543 whole entry): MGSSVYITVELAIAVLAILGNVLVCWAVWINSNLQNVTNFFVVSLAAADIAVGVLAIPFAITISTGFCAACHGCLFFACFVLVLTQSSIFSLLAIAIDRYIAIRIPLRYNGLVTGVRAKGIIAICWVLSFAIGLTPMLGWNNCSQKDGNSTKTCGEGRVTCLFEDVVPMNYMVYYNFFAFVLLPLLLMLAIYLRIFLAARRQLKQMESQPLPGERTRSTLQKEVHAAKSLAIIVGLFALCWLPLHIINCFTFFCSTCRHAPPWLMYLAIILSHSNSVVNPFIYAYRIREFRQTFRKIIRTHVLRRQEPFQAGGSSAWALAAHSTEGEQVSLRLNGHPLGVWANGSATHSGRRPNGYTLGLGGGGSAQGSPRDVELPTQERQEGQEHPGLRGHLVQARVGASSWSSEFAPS
# A1 receptors [4] = target: T2, A1 receptors; assay: inhibition of binding of [3H]-phenylisopropyladenosine in rat brain membranes (D); set-up: Rat Brain Membranes; from tissue; host or cells: rat brain (membranes)
# Protocol: as §1
# (D) Rat Brain Membranes
# A2 receptors [5] = target: T4, A2 receptors (Homo sapiens, UniProt P29274); assay: antagonism of NECA-stimulated adenylate cyclase in human platelet membranes (A); assay type: biochemical
# T4 construct: Human Platelet Membranes; from tissue; host or cells: human platelets (membranes)
# T4 sequence (P29274 whole entry): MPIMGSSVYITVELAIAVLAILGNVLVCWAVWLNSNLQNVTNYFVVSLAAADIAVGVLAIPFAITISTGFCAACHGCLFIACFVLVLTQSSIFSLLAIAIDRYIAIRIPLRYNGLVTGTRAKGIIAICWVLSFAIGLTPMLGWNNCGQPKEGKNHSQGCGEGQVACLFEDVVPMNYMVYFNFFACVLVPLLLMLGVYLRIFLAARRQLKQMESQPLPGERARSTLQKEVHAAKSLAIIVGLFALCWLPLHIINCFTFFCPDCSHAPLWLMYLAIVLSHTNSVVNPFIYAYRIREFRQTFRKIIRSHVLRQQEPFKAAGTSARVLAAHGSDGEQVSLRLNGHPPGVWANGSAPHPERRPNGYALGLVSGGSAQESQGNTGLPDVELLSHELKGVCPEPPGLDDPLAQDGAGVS
# [6] = [3H]-CHA, rat cortical A1 receptors, read-out: Rat Cortical Binding Constant Ki
# [7] = (A) Human Platelet Membranes, A2 Effects
# [8] = (C) Rat Fat Cell Membranes, A1 Effects, read-out: KB vs PIA INHIBITION (Adenylate Cyclase)
# [9] = (B) Rat PC12 Membranes, A2 Effects
# [10] = (D) Rat Brain Membranes, A1 Effects, read-out: Ki vs [^3 H] PI (Binding)
compound,measurement,setting,value
"Cn1cnc2c(N[C@H]3C[C@H]4CC[C@@H]3C4)nc(Cl)nc21 (relative stereo) [compound 0913, N^6-(endo-2-norbornyl)-2-chloro-9-MA]",pKi,[1]; [6],6.98
"Cn1c(C2CCCC2)nc2c(N[C@H]3C[C@H]4CC[C@@H]3C4)ncnc21 (relative stereo) [compound 0964, N^6-(endo-2-norbornyl)-8-cyclopentyl-9-MA]",pKi,[1]; [6],6.62
"Cn1cnc2c(N[C@@H]3C[C@H]4CC[C@@H]3C4)ncnc21 (relative stereo) [compound 0978, N^6-(exo-2-norbornyl)-9-MA]",pKi,[1]; [6],6.37
"Cn1c(=O)[nH]c2c(N[C@H]3C[C@H]4CC[C@@H]3C4)ncnc21 (relative stereo) [compound 1001, N^6-(endo-2-norbornyl)-8-oxo-9-MA]",pKi,[1]; [6],~5.00
"Cn1c(Br)nc2c(N[C@H]3C[C@H]4CC[C@@H]3C4)ncnc21 (relative stereo) [compound 1003, N^6-(endo-2-norbornyl)-8-bromo-9-MA]",pKi,[1]; [6],7.89
"Cn1c(N)nc2c(N[C@H]3C[C@H]4CC[C@@H]3C4)ncnc21 (relative stereo) [compound 1005, N^6-(endo-2-norbornyl)-8-amino-9-MA]",pKi,[1]; [6],6.06
"Cn1c(C(=O)O)nc2c(N[C@H]3C[C@H]4CC[C@@H]3C4)ncnc21 (relative stereo) [compound 1006, N^6-(endo-2-norbornyl)-8-carboxy-9-MA Sodium Salt]",pKi,[1]; [6],< 5.00
"OCCOCn1cnc2c(N[C@H]3C[C@H]4CC[C@@H]3C4)ncnc21 (relative stereo) [compound 1059, N^6-(endo-2-norbornyl)-9-[(2-hydroxyethoxy)methyl]adenine]",pKi,[1]; [6],6.31
"Cn1c(S)nc2c(N[C@H]3C[C@H]4CC[C@@H]3C4)ncnc21 (relative stereo) [compound 1060, N^6-(endo-2-norbornyl)-8-thio-9-MA]",pKi,[1]; [6],6.43
"Cn1c(Cl)nc2c(N[C@H]3C[C@H]4CC[C@@H]3C4)ncnc21 (relative stereo) [compound 1061, N^6-(endo-2-norbornyl)-8-chloro-9-MA]",pKi,[1]; [6],7.82
"Cn1c(S(=O)(=O)O)nc2c(N[C@H]3C[C@H]4CC[C@@H]3C4)ncnc21 (relative stereo) [compound 1062, N^6-(endo-2-norbornyl)-8-sulfonate-9-MA sodium salt]",pKi,[1]; [6],< 4.00
"Cn1cnc2c(N[C@H]3C[C@H]4CC[C@@H]3C4)nc(O)nc21 (relative stereo) [compound 1063, N^6-(Endo-2-norbornyl)-2-oxo-9-MA]",pKi,[1]; [6],5.95
"Cn1c(NC2CCCC2)nc2c(N[C@H]3C[C@H]4CC[C@@H]3C4)ncnc21 (relative stereo) [compound 1064, N^6-(endo-2-norbornyl)-8-cyclopentylamine-9-MA]",pKi,[1]; [6],5.72
"Cn1cnc2c(N)ncnc21 [9-Methyladenine (9-MA), 9-Methyladenine, reference compound]",Kb,A1 receptors [2],112 µM
same,Kb,A2 receptors [3],24 µM
same,pKi,A1 receptors [4],3.97
Cn1cnc2c(NC3CCCCC3)ncnc21 [N^6 -Cyclohexyl-9-MA],Kb,A2 receptors [5]; [7],7.4 µM
same,Kb,A1 receptors [2]; [8],0.65 µM
same,Kb,A2 receptors [3]; [9],21 µM
CNc1ncnc2c1ncn2C [N^6 -Methyl-9-MA],Kb,A2 receptors [5],150 µM
same,Kb,A1 receptors [2],220 µM
same,Kb,A2 receptors [3],130 µM
same,pKi,A1 receptors [4],< 4.00
"Cn1cnc2c(Nc3ccccc3)ncnc21 [N^6 Phenyl-9-MA, N^6 -Phenyl-9-MA]",Kb,A2 receptors [5]; [7],21 µM
same,Kb,A1 receptors [2]; [8],10 µM
same,Kb,A2 receptors [3]; [9],107 µM
same,pKi,A1 receptors [4]; [10],4.60
"C[C@H](Cc1ccccc1)Nc1ncnc2c1ncn2C [N^6 R-1-Phenyl-2-propyl-9-MA, N^6 -R-1-Phenyl-2-propyl-9-MA]",Kb,A2 receptors [5]; [7],13 µM
same,Kb,A1 receptors [2],7.2 µM
same,Kb,A2 receptors [3]; [9],25 µM
same,pKi,A1 receptors [4],5.60
Cn1cnc2c(NCCc3cccnc3)ncnc21 [N^6-2-(3-Pyridylethyl)-9-MA],Kb,A2 receptors [5]; [7],92 µM
same,Kb,A1 receptors [2]; [8],96 µM
same,Kb,A2 receptors [3]; [9],117 µM
same,pKi,A1 receptors [4]; [10],4.39
Cn1cnc2c(NCCc3ccsc3)ncnc21 [N^6-2-(3-Thienylethyl)-9-MA],Kb,A2 receptors [5]; [7],14 µM
same,Kb,A1 receptors [2]; [8],24 µM
same,Kb,A2 receptors [3]; [9],25 µM
same,pKi,A1 receptors [4]; [10],4.70
"Cn1cnc2c(NCc3ccccc3)ncnc21 [N^6-2-Benzyl-9-MA, N^6 -Benzyl-9-MA]",Kb,A2 receptors [5]; [7],57 µM
same,Kb,A1 receptors [2]; [8],49 µM
same,Kb,A2 receptors [3]; [9],100 µM
same,pKi,A1 receptors [4]; [10],4.77
"Cn1cnc2c(Nc3ccccc3F)ncnc21 [N^6-2-Fluorophenyl-9-MA, N^6-2-Fluorophenyl-9-MA]",Kb,A2 receptors [5]; [7],11 µM
same,Kb,A1 receptors [2]; [8],17 µM
same,Kb,A2 receptors [3]; [9],29 µM
same,pKi,A1 receptors [4]; [10],5.07
"Cn1cnc2c(NC3CCC3)ncnc21 [N^6-cyclobutyl-0-MA, N^6 -Cyclobutyl-9-Methyl Adenine]",Kb,A2 receptors [5]; [7],5.5 µM
same,Kb,A1 receptors [2]; [8],0.89 µM
same,Kb,A2 receptors [3]; [9],23 µM
same,pKi,A1 receptors [4]; [10],5.92
"Cn1c(C2CCCC2)nc2c(NC3CCCC3)ncnc21 [compound 0965, N^6-cyclopentyl-8-cyclopentyl-9-MA]",pKi,[1]; [6],6.85
"Cn1cnc2c(NCC(c3ccccc3)c3ccccc3)ncnc21 [compound 0966, N^6-2,2-diphenylethyl-9-MA]",pKi,[1]; [6],< 5.00
"Cn1cnc2c(NCCc3ccccc3Cl)ncnc21 [compound 0967, N^6-2(2-chlorophenylethyl)9-MA]",pKi,[1]; [6],< 5.00
"Cn1cnc2c(NCCN)ncnc21 [compound 0982, N^6-2-Aminoethyl-9-MA]",pKi,[1]; [6],< 5.00
"CN(C)CCNc1ncnc2c1ncn2C [compound 0983, N^6-(2,2-N-dimethylethyl)-9-MA]",pKi,[1]; [6],< 5.00
"C[C@@H](Nc1ncnc2c1ncn2C)c1ccccc1 [compound 0984, N^6 -R-1-phenyl-1-ethyl-9-MA]",pKi,[1]; [6],< 5.00
"C[C@H](Nc1ncnc2c1ncn2C)c1ccccc1 [compound 0985, N^6 -S-1-phenyl-1-ethyl-9-MA]",pKi,[1]; [6],< 4.00
"C[C@@H](Cc1ccccc1)Nc1ncnc2c1ncn2C [compound 0986, N^6 -S-1-phenyl-2-propyl-9-MA]",Kb,A2 receptors [5],23 µM
same,pKi,[1],< 5.00
same,Kb,A2 receptors [3]; [9],74 µM
same,pKi,A1 receptors [4],5.00
"Cn1cnc2c(Nc3cccs3)ncnc21 [compound 0987, N6 2-thienyl-9-MA]",pKi,[1]; [6],< 4.00
"Cc1cc(Cl)ccc1Nc1ncnc2c1ncn2C [compound 0988, N6(4-chloro-2-methylphenyl)-9-MA]",pKi,[1]; [6],< 5.00
"Cn1cnc2c(NCCc3c[nH]c4ccccc34)ncnc21 [compound 0989, N^6-2-(3-ethylindole)-9-MA]",pKi,[1]; [6],< 5.00
"Cn1cnc2c(NCCc3ccccc3)ncnc21 [compound 0990, N^6-2-(phenethyl)9-MA]",Kb,A2 receptors [5]; [7],170 µM
same,Kb,A1 receptors [2]; [8],> 300 µM
same,pKi,[1]; [6],< 5.00
same,Kb,A2 receptors [3]; [9],120 µM
same,pKi,A1 receptors [4]; [10],< 4.00
"COc1cc(CCNc2ncnc3c2ncn3C)cc(OC)c1OC [compound 1002, N^6-2-(3,4,5-Trimethoxyphenyl) ethyl-9-MA]",Kb,A2 receptors [5]; [7],23 µM
same,Kb,A1 receptors [2]; [8],122 µM
same,pKi,[1]; [6],< 5.00
same,Kb,A2 receptors [3]; [9],40 µM
same,pKi,A1 receptors [4]; [10],< 4.00
"CCCC(Nc1ncnc2c1ncn2C)C(=O)O (centres unmarked) [compound 1004, N^6-1-carboxy-1-butyl-9-MA]",pKi,[1]; [6],< 4.00
N^6 -Methylcyclopentyl-9-MA [N^6 -Methylcylopentyl-9-MA],Kb,"A2 receptors [5]; read-out: KB vs NECA Stimulation (Adenylate Cyclase), (A) Human Platelet Membranes, A2 Effects",45 µM
same,Kb,A1 receptors [2]; [8],9 µM
same,Kb,"A2 receptors [3]; read-out: KB vs NECA Stimulation (Adenylate Cyclase), (B) Rat PC12 Membranes, A2 Effects",56 µM
same,pKi,A1 receptors [4]; [10],5.60
